From patent US4395553A, “Chemical compounds” (Bristol-Myers Company, priority 1982, dated 1983)

How the values were obtained:
H2-receptor = conditions: cited from earlier work; for potency / effectiveness as H2-antagonist versus other H2-antagonist: compared with burimamide or metiamide
[1] = cited from earlier work
gastric acid secretion [2] = experiment: Gastric Antisecretory Activity in the Gastric Fistula Rat; type: in vivo, rat (male Long Evans); conditions: sc; for ED50: read-out: ED50 sc
Description: Male Long Evans rats weighing about 240-260 grams at the time of cannula implantation are used. […] The fistula components are designed and the operative procedure is carried out exactly as described in the above reference. Post operatively the animals are individually housed in solid bottom cages with sawdust and are allowed food and water ad libitum throughout the entire recovery period. Animals are not used for test purposes for at least 15 days after the operative procedure. The animals are fasted but allowed water ad libitum for 20 hours before the testing procedure is to begin. […] The catheter is then screwed into the cannula in place of the plugging screw and the rat is placed in a clear plastic rectangular cage measuring 40 cm long, 15 cm wide and 13 cm high. The bottom of the cage has a slit approximately 1.5 cm wide and 25 cm long running down the center to accommodate the catheter which hangs through it. In this way the rat is not restricted and can move freely about the cage during collection periods. The remainder of the assay is carried out as described by Ridley et al. [Research Comm. Chem. Path. […] Gastric secretions collected during the first hour after washing the stomach are discarded as they may be contaminated. For oral evaluation, the catheter is then removed from the cannula and replaced with the plugging screw. […] After this time the plugging screw is removed and replaced with a catheter to which a small plastic vial has been attached to collect the gastric secretions. A two hour sample is collected (this represents the control secretion), the catheter removed and replaced with the plugging screw. […] Forty-five minutes later the plugging screw is again removed, replaced with the catheter attached to a small plastic vial and another 2 hour sample is collected. The secretions in the second sample are compared to those of the control sample in order to determine the effects of the test drug. […] Titratable acid output is calculated in microequivalents by multiplying the volume in milliliters by the acid concentration in milliequivalents per liter. Results are expressed as percent inhibition relative to control readings. Dose response curves are constructed and ED50 values are calculated by regression analyses. At least three rats are used at each dosage level and a minimum of three dosage levels are utilized for determination of a dose response curve.

gastric acid secretion [3] = experiment: Gastric Antisecretory Activity in the Heidenhain Pouch Dog; type: in vivo
Description: Prior to surgery, hematology and blood chemistry profiles are obtained and an assessment made as to the general health of selected female dogs. Dogs are vaccinated with Tissue Vax 5 (DHLP--Pitman-Moore) and housed in general animal quarters for four weeks' observation so incipient diseases may become apparent. Dogs are fasted with water ad libitum 24 hours prior to surgery.
Anesthesia is induced with Sodium Pentothal (Abbott) 25-30 mg/kg iv. Subsequent anesthesia is maintained with methoxyflurane (Pitman-Moore). A mid-line linea alba incision from xiphoid to umbilicus provides good exposure and ease of closure. The stomach is pulled up into the operative field, the greater curvature stretched out at multiple points and clamps placed along the selected line of incision. The pouch is made from the corpus of the stomach so that true parietal cell juice is obtained. About 30% of the corpus volume is resected. The cannula is made of light-weight,biologically-inert material such as nylon or Delrin with dimensions and attachments after DeVito and Harkins [J. Appl. Physiol., 14, 138 (1959)]. Post operatively, dogs are medicated with antibiotics and an analgesic. They are allowed 2-3 months for recovery. Experiments are carried out in the following way: Dogs are fasted overnight (~18 hours) with water ad libitum prior to each experiment. The dogs are placed in a sling and a saphenous vein cannulated for drug administration. Histamine as the base (100 μg/kg/hr) and chlorpheniramine maleate (0.25 mg/kg/hr) are infused continuously (in a volume of 6 ml/hr) with a Harvard infusion pump.
Ninety minutes' infusion are allowed for the dogs to reach a steady state of acid output. At this time the drug or normal saline (control) is administered concomitantly with the secretagogue in a volume of 0.5 ml/kg over a 30 second period. When oral studies are to be carried out, the drug is administered via gastric gavage in a volume of 5 ml/kg. Infusion of the secretagogue is continued and 15 minute samples of the gastric juice are taken for 4.5 hours. Each sample is measured to the nearest 0.5 ml and titratable acidity is determined by titrating a 1 ml sample to pH 7.0 with 0.2 N NaOH, using an Autoburet and an electrometric pH meter (Radiometer).Titratable acid output is calculated in microequivalents by multiplying the volume in milliliters by the acid concentration in milliequivalents per liter.
Results are expressed as percent inhibition relative to control readings. Dose response curves are constructed and ED50 values are calculated by regression analyses. From 3 to 5 dogs are used at each dose level and a minimum of three dosage levels are utilized for determination of a dose response curve.

agranulocytosis = conditions: in vivo; cited from earlier work
peptic ulcer disease = conditions: clinical evaluation; cited from earlier work

## CNC(=S)NCCCCc1cnc[nH]1 [Burimamide]
H2-receptor; in animals and man
  inhibition of gastric secretion / clinical effectiveness: inhibits gastric secretion in animals and man
[1]
  oral absorption: oral absorption is poor

## CNC(=NC#N)NCCSCc1nc[nH]c1C [Cimetidine]
Gastric acid secretion [2]; Rattus norvegicus
  ED50: 3.8 µmol/kg
Gastric acid secretion [3]; Canis lupus familiaris, iv
  ED50: 2.18 µmol/kg
Gastric acid secretion [3]; Canis lupus familiaris, po
  ED50: ~3.3 µmol/kg
Gastric acid secretion [3]; oral
  ED50: 3.29 µmol/kg
H2-receptor
  potency / effectiveness as H2-antagonist versus other H2-antagonist: as effective an H2 -antagonist as metiamide
agranulocytosis
  toxicity (agranulocytosis): without producing agranulocytosis
Peptic ulcer disease
  therapeutic effect in treatment of peptic ulcer disease: effective therapeutic agent in the treatment of peptic ulcer disease

## Nc1c(NCCCOc2cccc(CN3CCCCC3)c2)c(=O)c1=O [Example 1, 1-Amino-2-[3-(3-piperidinomethylphenoxy)propylamino]cyclobutene-3,4-dione]
Gastric acid secretion [2]; Gastric Fistula Rat
  Potency Ratio (cimetidine = 1.0): 130
  ED50: 0.029 µmol/kg
Gastric acid secretion [3]; Canis lupus familiaris, oral, read-out: ED50
  ED50: 0.175 µmol/kg
Gastric acid secretion [3]; iv
  Potency Ratio (cimetidine = 1.0): 91
Gastric acid secretion [3]; oral
  Potency Ratio (cimetidine = 1.0): 19

## CN(C)Cc1ccc(CSCCNc2c(N)c(=O)c2=O)o1 [Example 2, 1-Amino-2-{2-[(5-dimethylaminomethyl-2-furyl)methylthio]ethylamino}cyclobutene-3,4-dione]
Gastric acid secretion [2]; Gastric Fistula Rat
  Potency Ratio (cimetidine = 1.0): ~ 2
  ED50: ~2 µmol/kg

## CNC(=S)NCCSCc1nc[nH]c1C [Metiamide]
H2-receptor
  potency / effectiveness as H2-antagonist versus other H2-antagonist: more potent than burimamide
H2-receptor; oral, man
  oral activity in man: orally active in man
agranulocytosis
  toxicity (agranulocytosis): toxicity (agranulocytosis)
